Source: ChEMBL document CHEMBL1201862, “PubChem BioAssay data set” (2004)
The source made the active and inactive calls.

Key:
Vero = Vero cell cytotoxicity, cytotoxicity control for flavivirus capping enzyme inhibitors (AID 588742); type: functional; conditions: Chlorocebus sabaeus
[1] = molecular target: T1, Mannose-6-phosphate isomerase (Homo sapiens, UniProt P34949); test: human PMI inhibitors, high substrate, primary screen, biochemical, fluorescence intensity, high mannose 6-phosphate (AID 1220)
T1 sequence (P34949 whole entry): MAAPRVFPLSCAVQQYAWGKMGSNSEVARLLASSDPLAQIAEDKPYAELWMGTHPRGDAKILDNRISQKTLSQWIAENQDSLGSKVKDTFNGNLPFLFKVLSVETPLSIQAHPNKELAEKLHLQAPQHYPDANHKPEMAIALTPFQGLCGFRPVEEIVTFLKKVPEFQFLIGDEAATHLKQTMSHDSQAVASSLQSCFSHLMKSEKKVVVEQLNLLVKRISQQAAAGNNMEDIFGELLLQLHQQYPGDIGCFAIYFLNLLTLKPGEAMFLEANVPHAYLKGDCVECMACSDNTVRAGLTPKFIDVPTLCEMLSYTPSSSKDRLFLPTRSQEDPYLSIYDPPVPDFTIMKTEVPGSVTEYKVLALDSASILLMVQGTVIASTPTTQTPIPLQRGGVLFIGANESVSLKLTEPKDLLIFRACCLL

[2] = cytotoxicity in HepG2 cells, dose response, cytotoxicity control, cell-based, plate reader, dry powder (AID 651947); type: functional
[3] = HeLa cell cytotoxicity, dose response, cytotoxicity control, CellTiter-Glo luminescence, dry powder, set 2 (AID 720593); type: functional, cell-based
[4] = HEK293T cell cytotoxicity, dose response, cytotoxicity control, CellTiter-Glo luminescence, dry powder, set 2 (AID 720595); type: functional, cell-based; conditions: HEK293
[5] = RKO cell viability reduction, dose response, CellTiter-Glo luminescence (AID 1117322); type: functional
[6] = cytotoxicity toward HT-29 cells – cell-based, CellTiter-Glo luminescence, IC50, dose response (AID 1117330); type: functional
[7] = cytotoxicity toward HCT116 cells – cell-based, CellTiter-Glo luminescence, IC50, dose response (AID 1117332); type: functional; conditions: HCT-116
[8] = cytotoxicity toward Colo320 cells – cell-based, CellTiter-Glo luminescence, IC50, dose response (AID 1117334); type: functional; conditions: COLO 320
[9] = CellTiter-Glo luminescent dose response of DLD-1 viability loss (AID 1117352); type: functional
[10] = SNU-C1 cell viability reduction, dose response, CellTiter-Glo luminescence (AID 1117323); type: functional, cell-based
[11] = Concentration-dependent survival of SW480 colon cancer line, luminescence detection with CellTiter-Glo, half-maximal inhibitory concentration (AID 1117338); type: functional
[12] = HCT116 cell viability decrease, GSK3B pretreatment – CellTiter-Glo, IC50, dose response (AID 1117339); type: functional; conditions: HCT-116
[13] = molecular target: T2, Low molecular weight phosphotyrosine protein phosphatase (Homo sapiens, UniProt P24666); test: LMPTP phosphatase inhibitors, colorimetric pNPP readout, dose response, orthogonal assay, biochemical, absorbance, pNPP substrate, LMPTP-A isoform, set 2 (AID 743308); type: functional
T2 sequence (P24666 whole entry): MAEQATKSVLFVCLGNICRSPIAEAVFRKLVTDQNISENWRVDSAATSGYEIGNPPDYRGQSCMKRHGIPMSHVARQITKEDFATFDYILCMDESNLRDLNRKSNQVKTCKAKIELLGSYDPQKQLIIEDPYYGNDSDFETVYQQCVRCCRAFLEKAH

[14] = molecular target: T2, Low molecular weight phosphotyrosine protein phosphatase; test: LMPTP phosphatase inhibitors, dose response, biochemical, OMFP substrate, fluorescence intensity, set 2 (AID 743307); type: functional
[15] = molecular target: T3, Methionyl-tRNA synthetase, putative (Trypanosoma brucei brucei, UniProt Q38C91); type: functional, Trypanosoma brucei brucei strain 927/4 GUTat10.1
T3 sequence (Q38C91 whole entry): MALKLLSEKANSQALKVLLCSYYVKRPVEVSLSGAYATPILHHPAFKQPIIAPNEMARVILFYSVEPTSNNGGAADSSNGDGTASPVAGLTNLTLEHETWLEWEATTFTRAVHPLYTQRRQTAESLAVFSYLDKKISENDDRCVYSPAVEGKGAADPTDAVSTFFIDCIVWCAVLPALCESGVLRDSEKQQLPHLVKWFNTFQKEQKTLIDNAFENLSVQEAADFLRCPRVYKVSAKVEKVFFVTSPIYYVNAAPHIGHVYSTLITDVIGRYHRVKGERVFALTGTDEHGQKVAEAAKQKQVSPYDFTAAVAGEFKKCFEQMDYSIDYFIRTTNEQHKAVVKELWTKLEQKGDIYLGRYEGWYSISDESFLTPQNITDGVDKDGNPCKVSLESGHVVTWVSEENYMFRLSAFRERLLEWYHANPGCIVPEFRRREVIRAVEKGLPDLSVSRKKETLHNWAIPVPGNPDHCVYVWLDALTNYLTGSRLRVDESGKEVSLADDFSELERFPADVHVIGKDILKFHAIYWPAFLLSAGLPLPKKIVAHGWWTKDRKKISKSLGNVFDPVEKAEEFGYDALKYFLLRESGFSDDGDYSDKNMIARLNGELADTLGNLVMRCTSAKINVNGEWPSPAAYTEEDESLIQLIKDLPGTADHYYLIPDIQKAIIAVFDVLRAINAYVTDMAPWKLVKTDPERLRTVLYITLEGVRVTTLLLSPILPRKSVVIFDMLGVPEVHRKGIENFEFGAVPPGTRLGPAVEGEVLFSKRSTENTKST

[16] = molecular target: T3, Methionyl-tRNA synthetase, putative; type: functional, Trypanosoma brucei brucei strain 927/4 GUTat10.1; remark: listed apart in the source
[17] = Counterscreen for inhibitors of Trypanosoma brucei methionyl tRNA synthetase (MetRS): Luminescence-based cell-based high throughput dose response assay to identify compounds that are cytotoxic to Jurkat human T lymphocyte cells.; type: functional
[18] = Late stage counterscreen for inhibitors of Trypanosoma brucei methionyl tRNA synthetase (MetRS): Luminescence-based cell-based high throughput dose response assay to identify compounds that are cytotoxic to Jurkat human T lymphocyte cells.; type: functional
[19] = cytotoxicity in OV-90 ovarian cancer cells, dose response, PAX8 inhibitor project, cell-based, plate reader, dry powder, SA8 (AID 743149); type: functional
[20] = PAX5 activity inhibitors, dose response, selectivity assay for PAX8 inhibitor project, cell-based, plate reader, dry powder samples (AID 743047); type: functional;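 note: HEK293 cells carrying a Pax5 driven CD19 promoter luciferase reporter; potency of inhibitors that lower reporter luminescence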
[21] = NIH:OVCAR-3 ovarian cancer cell cytotoxicity, dose response, PAX8 inhibitor project, plate reader, dry powder samples (AID 743044); type: functional, cell-based
[22] = cytotoxicity in COV434 cells, dose response, cytotoxicity control for PAX8 inhibitor project, cell-based, plate reader, dry powder, SA7 (AID 743145); type: functional
[23] = cytotoxicity dependent on PAX8, dose response, cell-based, plate reader, dry powder (AID 743049); type: functional
Paired box protein Pax-8 = Paired box protein Pax-8 (Homo sapiens, UniProt Q06710); test: inhibitors of PAX8-driven TPO luciferase reporter, dose response, RMG-I cells, cherry-pick (AID 687027); type: functional, cell-based;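 note: luciferase reporter driven by Pax8 target thyroperoxidase promoter measured by SteadyGlo luminescence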
Sequence of Paired box protein Pax-8 (Q06710 whole entry): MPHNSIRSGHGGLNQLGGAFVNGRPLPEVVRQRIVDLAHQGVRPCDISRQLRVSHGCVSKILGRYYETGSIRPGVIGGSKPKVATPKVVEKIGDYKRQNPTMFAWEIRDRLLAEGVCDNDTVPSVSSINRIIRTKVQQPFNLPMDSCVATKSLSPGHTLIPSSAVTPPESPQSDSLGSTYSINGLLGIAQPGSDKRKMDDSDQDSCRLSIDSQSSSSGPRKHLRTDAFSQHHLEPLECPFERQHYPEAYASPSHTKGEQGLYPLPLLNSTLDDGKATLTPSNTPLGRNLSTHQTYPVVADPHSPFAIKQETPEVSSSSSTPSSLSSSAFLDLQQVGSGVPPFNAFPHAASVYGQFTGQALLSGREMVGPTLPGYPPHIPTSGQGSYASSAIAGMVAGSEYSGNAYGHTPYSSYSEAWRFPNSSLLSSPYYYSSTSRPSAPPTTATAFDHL

[24] = PAX2 cell-based inhibition, dose response, selectivity assay for PAX8 inhibitor project, plate reader, dry powder samples (AID 743048); type: functional;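 note: HEK293 cells carrying a WT1 promoter luciferase reporter driven by expressed Pax2; potency is for inhibition of Pax2 driven reporter signal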
[25] = IGROV1 ovarian cancer cell cytotoxicity, dose response, PAX8 inhibitor project, plate reader, dry powder samples (AID 743043); type: functional, cell-based; conditions: IGROV-1
[26] = cytotoxicity in OVCAR8 ovarian cancer cells, dose response, PAX8 project, cell-based, plate reader, dry powder samples (AID 743197); type: functional; conditions: OVCAR-8
[27] = IOSE-T80 ovarian epithelial cell cytotoxicity, dose response, cytotoxicity control for PAX8 inhibitor project, plate reader, dry powder samples (AID 743045); type: functional, cell-based

CCc1cccc(C)c1N=C(S)NCC1CCN(c2ccc(OC)cc2)C1 (centres undefined)
CC50 (Vero): > 40 µM (active)
IC50 [1]: > 50 µM (not active)

FC(F)(F)c1ccccc1CSc1nnc(-c2ccccc2)o1
AC50 [2]: 23.1 µM (active)

O=C(Cc1ccccc1)NC(c1ccco1)c1ccc2cccnc2c1O (centres undefined)
AC50 [3]: 18.1 µM (active)
AC50 [4]: 2.56 µM (active)

CC(C)(CO)[C@@H](O)C(=O)NCCC(=O)NCCSSCCNC(=O)CCNC(=O)[C@H](O)C(C)(C)CO
IC50 [5]: > 20 µM (inactive)
IC50 [6]: > 20 µM (inactive)
IC50 [7]: > 20 µM (inactive)
IC50 [8]: > 20 µM (inactive)
IC50 [9]: > 20 µM (inactive)
IC50 [10]: > 20 µM (inactive)
IC50 [11]: > 20 µM (inactive)
IC50 [12]: > 20 µM (inactive)

c1ccc(-c2nc(N3CCOCC3)c3ccccc3n2)cc1
IC50 [13]: > 80 µM (inactive)
IC50 [14]: > 80 µM (inactive)

O=C(NCc1nc2ccccc2[nH]1)C1=C[C@@H](c2ccccc2)C[C@@H](OCc2ccc(CO)cc2)O1
IC50 [15]: 0.835 µM (active)
IC50 [16]: 2.08 µM (active)
IC50 [17]: 81 µM (inactive)
IC50 [18]: > 83.3 µM (inactive)

O=C(C[C@@H]1C[C@H]2c3cc(NS(=O)(=O)c4ccc(F)cc4)ccc3O[C@H]2[C@H](CO)O1)NCc1ccc(Cl)cc1
AC50 [19]: 19.1 µM (active)
AC50 [20]: 28.1 µM (active)
AC50 [21]: 16.1 µM (active)
AC50 [22]: 0.000676 µM (active)
AC50 [23]: 45.7 µM (active)
AC50 (Paired box protein Pax-8): 5.93 µM (active)
AC50 [24]: 34.3 µM (active)
AC50 [25]: 43 µM (active)
AC50 [26]: 25.8 µM (active)
AC50 [27]: 19.8 µM (active)
